Each structure is given as a SMILES string.

Series [1] is described as follows: Retention time of the compound by HPLC analysis. The series is classed as physicochemical.
The target in series [2] is T1, Peroxisome proliferator-activated receptor alpha (Homo sapiens) (UniProt Q07869).
T1 sequence (whole entry): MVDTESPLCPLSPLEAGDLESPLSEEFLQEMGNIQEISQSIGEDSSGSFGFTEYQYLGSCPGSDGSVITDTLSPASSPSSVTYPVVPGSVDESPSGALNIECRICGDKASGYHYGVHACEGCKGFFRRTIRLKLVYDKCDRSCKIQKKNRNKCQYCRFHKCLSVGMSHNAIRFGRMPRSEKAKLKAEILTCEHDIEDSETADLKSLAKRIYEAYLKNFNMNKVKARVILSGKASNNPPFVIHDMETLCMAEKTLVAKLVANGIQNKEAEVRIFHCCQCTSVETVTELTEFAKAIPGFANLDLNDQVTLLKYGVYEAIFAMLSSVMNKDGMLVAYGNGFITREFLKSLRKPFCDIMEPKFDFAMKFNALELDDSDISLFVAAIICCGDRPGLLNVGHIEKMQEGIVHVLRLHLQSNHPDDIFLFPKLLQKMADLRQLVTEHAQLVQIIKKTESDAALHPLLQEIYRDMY
The series can be described thus: Agonist activity at PPAR-alpha (unknown origin) expressed in CV-1 cells co-transfected with tk-PPRE-luciferase vector at 10 uM after 24 hrs by transactivation assay relative to GW7647. In kind it is cell-based.

For series [3], the target named is T2, Peroxisome proliferator-activated receptor delta (Homo sapiens) (UniProt Q03181).
T2 sequence (whole entry): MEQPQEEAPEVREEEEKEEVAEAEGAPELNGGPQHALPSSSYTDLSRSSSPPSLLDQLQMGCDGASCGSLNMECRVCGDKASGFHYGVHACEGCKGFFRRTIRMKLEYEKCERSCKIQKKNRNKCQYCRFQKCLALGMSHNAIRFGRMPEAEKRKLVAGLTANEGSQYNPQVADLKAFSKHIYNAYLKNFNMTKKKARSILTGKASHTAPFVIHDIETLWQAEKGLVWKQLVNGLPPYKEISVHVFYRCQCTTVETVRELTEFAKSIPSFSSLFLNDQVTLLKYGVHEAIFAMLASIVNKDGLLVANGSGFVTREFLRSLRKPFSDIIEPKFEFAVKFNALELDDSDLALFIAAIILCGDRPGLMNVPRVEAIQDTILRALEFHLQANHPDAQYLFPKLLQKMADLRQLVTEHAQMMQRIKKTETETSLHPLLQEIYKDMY
Briefly: Agonist activity at PPAR-delta (unknown origin) expressed in HEK293t cells co-transfected with tk-PPRE-luciferase vector at 10 uM after 24 hrs by transactivation assay relative to GW0742. The series is classed as cell-based. As to conditions: HEK-293T.

For series [4], the target named is T3, Peroxisome proliferator-activated receptor gamma (Homo sapiens) (UniProt P37231).
T3 sequence (whole entry): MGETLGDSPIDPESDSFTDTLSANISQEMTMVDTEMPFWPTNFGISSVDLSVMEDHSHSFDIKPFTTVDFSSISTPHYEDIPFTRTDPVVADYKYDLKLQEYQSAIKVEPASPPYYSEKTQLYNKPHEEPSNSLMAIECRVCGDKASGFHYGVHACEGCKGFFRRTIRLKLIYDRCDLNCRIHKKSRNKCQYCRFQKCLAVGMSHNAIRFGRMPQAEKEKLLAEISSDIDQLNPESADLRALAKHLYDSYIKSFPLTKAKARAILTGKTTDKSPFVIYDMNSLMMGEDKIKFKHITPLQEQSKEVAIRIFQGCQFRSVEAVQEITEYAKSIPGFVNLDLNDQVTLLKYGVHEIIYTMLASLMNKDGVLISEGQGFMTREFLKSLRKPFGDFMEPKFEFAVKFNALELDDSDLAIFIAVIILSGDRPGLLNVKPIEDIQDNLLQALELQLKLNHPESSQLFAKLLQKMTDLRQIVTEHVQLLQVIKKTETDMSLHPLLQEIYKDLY
Briefly: Agonist activity at PPAR-gamma (unknown origin) expressed in CV-1 cells co-transfected with tk-PPRE-luciferase vector at 10 uM after 24 hrs by transactivation assay relative to rosiglitazone. The series is classed as cell-based.

`O=C(O)Cc1c[nH]c2ccc(OCCCOc3cccc(Oc4ccccc4)c3)cc12` had a Retention_time in series [1] of 7.305 min. Moreover, the Emax in series [2] came to 45.4%; in series [3] it was 23.8%; in series [4], 92.5%.

The molecule `Cc1ccc(COc2cccc(OCCOc3ccc4c(c3)c(CC(=O)O)cn4Cc3ccccc3)c2)cc1` registered a Retention_time in series [1] of 16.602 min. Further, the Emax in series [2] was 38.5%; in series [3] it was 87.2%; in series [4] it was 101%.

Consider `CCCn1cc(CC(=O)O)c2cc(OCCCOc3cccc(OCc4ccc(Cl)cc4)c3)ccc21`, for which the Retention_time in series [1] came out at 21.212 min. For the same molecule, the Emax stood at 66.8% in series [2], 77.1% in series [3] and 110% in series [4].

`O=C(O)Cc1cn(Cc2ccccc2)c2ccc(OCCOc3cccc(OCc4ccc(Cl)cc4)c3)cc12`: the Retention_time in series [1] is recorded as 17.1 min. The Emax in series [2] stood at 40.7%; in series [3] it was 106%; in series [4], 81.2%.

In turn, `O=C(O)Cc1cn(Cc2ccccc2)c2ccc(OCCCOc3ccccc3OCc3ccc(Cl)cc3)cc12` had a Retention_time in series [1] of 15.313 min. In addition, the Emax in series [2] is 27.1%; in series [3], 74.9%; in series [4], 89.2%.

For `O=C(O)Cc1cn(Cc2ccccc2)c2ccc(OCCOc3cccc(OCc4ccc(C(F)(F)F)cc4)c3)cc12`, in series [1], the Retention_time stood at 18.375 min. Moreover, the Emax in series [2] is 23.4%; in series [3] it was 73.9%; in series [4], 85.7%.

`Cc1cccc(OCCOc2ccc3[nH]cc(CC(=O)O)c3c2)c1` showed a Retention_time in series [1] of 4.444 min. In addition, the results for the Emax in series [2], in series [3] and in series [4] were 21.8%, 27.9% and 31.3%, respectively.

As to `Cc1ccc(COc2ccc(OCCCOc3ccc4[nH]cc(CC(=O)O)c4c3)cc2)cc1`, the Retention_time in series [1] is 7.89 min. Besides, the Emax in series [2] turned out to be 41.2%; in series [3], 53.3%; in series [4], 91.7%.

`Cn1cc(CC(=O)O)c2cc(OCCCOc3cccc(OCc4ccc(Cl)cc4)c3)ccc21` displayed a Retention_time in series [1] of 13.52 min. Besides, the figures for the Emax in series [2], in series [3] and in series [4] were 37.5%, 70.8% and 110%, respectively.

For the molecule `Cc1ccc(COc2ccccc2OCCCOc2ccc3[nH]cc(CC(=O)O)c3c2)cc1`, the Retention_time in series [1] is listed as 7.257 min. Besides, the Emax is 41.2% in series [2], 35.2% in series [3] and 73.4% in series [4].

In the case of `O=C(O)Cc1cn(Cc2ccccc2)c2ccc(OCCCOc3cccc(Oc4ccc(C(F)(F)F)cc4)c3)cc12`, the Retention_time in series [1] worked out at 25.922 min. For the same molecule, the values for the Emax in series [2], in series [3] and in series [4] were 25.9%, 53.2% and 85.2%, respectively.

As for `O=C(O)Cc1c[nH]c2ccc(OCCCOc3cccc(OCc4ccc(Cl)cc4)c3)cc12`, the Retention_time in series [1] came out at 9.64 min. Besides, the Emax is 56.7% in series [2], 63.7% in series [3] and 104% in series [4].

Turning to `O=C(O)Cc1c[nH]c2ccc(OCCOc3cccc(Cl)c3)cc12`, in series [1], the Retention_time came out at 4.608 min. For the same molecule, the Emax in series [2] came out at 15.5%; in series [3], 16.2%; in series [4] it was 16.8%.

Take `Cc1ccc(COc2ccccc2OCCCOc2ccc3c(CC(=O)O)c[nH]c3c2)cc1`: the Retention_time in series [1] came to 7.422 min. The Emax came to 10.9% in series [2], 64.6% in series [3] and 19.2% in series [4].

The molecule `Cc1ccc(COc2ccccc2OCCCOc2ccc3c(c2)c(CC(=O)O)cn3Cc2ccccc2)cc1` registered a Retention_time in series [1] of 14.49 min. Also, the figures for the Emax in series [2], in series [3] and in series [4] were 26.7%, 68.9% and 75.1%, respectively.

Take `O=C(O)Cc1cn(Cc2ccccc2)c2ccc(OCCCOc3cccc(OCc4ccc(Cl)cc4Cl)c3)cc12`: the Emax in series [2] worked out at 18.7%; in series [3], 44.2%; in series [4] it was 102%.

For `O=C(O)Cc1c[nH]c2ccc(OCCCOc3cccc(OCc4ccc(Cl)cc4Cl)c3)cc12`, the Emax is 59.5% in series [2], 85.3% in series [3] and 102% in series [4].

The record behind these values is ChEMBL document CHEMBL3596146, “Design, synthesis, and biological evaluation of a series of alkoxy-3-indolylacetic acids as peroxisome proliferator-activated receptor γ/δ agonists” (Bioorg Med Chem, 2015).
